The test system of this assay is odorant receptor (OR) that recognizes vanillin and eugenol (Rho20-eugenol receptor). In words: CRE-SEAP reporter gene assay, Gαs-coupled odorant receptor. It is filed as cell-based. The note with it: HEK-293 cells, 500 uM eugenol, 48 hours. The text has this:
A high throughput screening assay was investigated for Gαs-coupled GPCRs based on the CRE-SEAP reporter gene construct, in which five tandem cAMP response elements […] lie upstream of a gene encoding secreted alkaline phosphatase (SEAP) (Durocher et al., Anal Biochem 284: 316-326 (2000)). To ensure the general utility of the CRE-SEAP reporter gene construct for the detection of Gαs-coupled GPCR activation, HEK-293 cells were cotransfected with the CRE-SEAP construct together with expression vectors encoding either a β2-adrenergic receptor or an odorant receptor (OR) that recognizes vanillin and eugenol. Both receptors are GPCRs that couple to Gαs subunits. The HEK-293 cells expressing the β2-adrenergic receptor were grown for 48 hours in the presence or absence of 10 uM isoproterenol. The HEK-293 cells expressing the OR were grown for 48 hours in the presence of 500 uM eugenol. After growing in the presence of the ligands, the cells were assayed for SEAP activity using a fluorescent alkaline phosphatase substrate and a fluorescence plate reader. […]
Following transfection, the cells were maintained for 48 hours in 200 ul serum free media containing either 10 uM isoproterenol (Sigma) or 500 uM eugenol (Sigma). […] Fluorescence was then measured using a CytoFluor 4000 multi well plate reader (Applied Biosystems).
(In general: A reporter such as luciferase makes a cellular process visible.)

SMILES strings stand for the structures.

As to `C=CCc1ccc(O)c(OC)c1` [eugenol], the SEAP activity result was “increase in SEAP activity”.

These data come from patent publication US9658208B2, “Methods and G proteins for screening and identifying ligands of G protein-coupled receptors” (Fred Hutchinson Cancer Research Center, priority 2011, dated 2017).
